According to patent publication US20190359645A1, “2'3'-CYCLIC DINUCLEOTIDES COMPRISING CARBOCYCLIC NUCLEOTIDE” (Institute of Organic Chemistry and Biochemistry ASCR, V.V.I., priority 2018, published 2019):

biological target: WT STING (Homo sapiens, UniProt Q86WV6, H232R); test: Differential scanning fluorimetry (DSF) with WT STING; type: binding; design: truncated human WT STING or AQ STING (amino acid residues 140-343); 8xHis (N, cleaved yes); SUMO (N, cleaved yes); made in house; host or cells: E. coli Rosetta-gami B (DE3); details: read-out: DSF ΔTm WT STING
Source text: Both WT and AQ human STING (G230A-R^293Q) cDNA were amplified by the use of PCR (Phusion® High-Fidelity DNA Polymerase, cat. # M0530S, NEB, Ipswich, USA) using oligonucleotides hSTING140-BamH-For ([…]) (SEQ ID NO:5) and hSTING379-Not-Rev3 ([…]) (SEQ ID NO:6) from pUNOI-hSTING-WT (cat. # punol-hstingwt, InvivoGen, San Diego, USA) and pUNO1-hSTING-HAQ plasmids (punol-hsting-haq, InvivoGen, San Diego, USA). Purified PCR products were cleaved with restriction enzymes BamHI (cat. # R^0136S, NEB, Ipswich, USA) and NotI (cat. # R^0189S, NEB, Ipswich, USA) and cloned into the pSUMO vector linearized with the identical enzymes. Plasmid pSUMO was created by introducing 8-His-SUMO sequence between NdeI and BamHI sites of pHis-parallel2 plasmid (Clontech, Moutain View, USA). pSUMO-STING WT or pSUMO-STING AQ plasmids thus encoded truncated human WT STING or AQ STING (amino acid residues 140-343) with N-terminal 8×His and SUMO tag.
The recombinant WT STING and AQ STING proteins were overexpressed in Rosetta-gami B (DE3) competent cells (cat. #71136-3, Merck Millipore, Billerica, USA). Bacterial pellets were re-suspended in ice-cold lysis buffer containing 50 mmol·l^−1 TrisCl (cat. # T1503, Sigma Aldrich, Czech Republic) pH 8.0, 300 mmol·l^−1 NaCl, 3 mmol·l^−1 (3-mercaptoethanol (cat. # M6250, Sigma Aldrich, Czech Republic), 10% glycerol (cat. #G5516, Sigma Aldrich, Czech Republic) and 20 mmol·l^−1 imidazole (cat. #15513, Sigma Aldrich, Czech Republic) using Dounce homogenizer. DNase I (cat. # D5025, Sigma Aldrich, Czech Republic) and RNase A (cat. # R^6513, Sigma Aldrich, Czech Republic) were added (final concentration 50 μg/ml) together with MgCl2 (final concentration 5 mmol·l^−1) to the homogenate and bacteria were lysed using French Press G-M™ High-Pressure Cell Press Homogenizer (1500 psi, 3 cycles). Lysate was spun 30,000 g for 20 minutes and supernatant was gently stirred with Ni-NTA resin (cat. #745400.25 Macherey-Nagel, Duren, Germany) for 30 minutes. The resin was poured into a chromatography column, washed with 50 ml buffer A (50 mmol·l^−1 TrisCl (pH 8.0), 800 mmol·l^−1 NaCl, 3 mmol·l^−1β-mercaptoethanol; 10% glycerol; 20 mmol·l^−1 imidazole) and 8-His-SUMO tagged STING proteins were eluted with 15 ml buffer A containing 300 mmol·l^−1 imidazole. The eluted proteins were cleaved with recombinant SUMO protease (80 pig/ml of protein solution, cat. #12588018, ThermoFisher, Waltham, USA). The proteins were further purified by size exclusion chromatography using HiLoad 16/60 Superdex 75 (cat. #28989333, GE Healthcare Bio-Sciences, Pittsburgh, USA) in 50 mmol·l^−1 Tris C1 buffer pH 7.4 containing 150 mmol·l^−1 NaCl, and 10% glycerol. Proteins were concentrated with Amicon® Ultra-15 10 K device (cat. # UFC901008, Merck Millipore, Billerica, USA) and flash frozen in liquid N2.
WT and AQ allelic forms of STING protein were diluted to the final concentration 0.1 mg/ml in 100 mmol·l^−1 TrisCl buffer pH 7.4 containing, 150 mmol·l^−1 NaCl, 1:500 SYPRO Orange (cat. # S6650, ThermoFisher, Waltham, USA) and 150 μM CDN or water. 20 μL solutions of the reaction mixtures were pipetted in triplicates into 96 well optical reaction plates and thermal denaturation of samples were performed on real time PCR cycler (LightCycler® 480 Instrument II—Roche, Basel, Switzerland). The first derivative of the thermal denaturation curves was performed to calculate denaturing temperatures of STING-CDN complexes and STING apoproteins. The thermal shift for each CDN was calculated by subtracting the average denaturing temperature of STING apoprotein from the average denaturing temperature of STING CDN complex.

Chain of WT STING (Q86WV6 140-343 H232R): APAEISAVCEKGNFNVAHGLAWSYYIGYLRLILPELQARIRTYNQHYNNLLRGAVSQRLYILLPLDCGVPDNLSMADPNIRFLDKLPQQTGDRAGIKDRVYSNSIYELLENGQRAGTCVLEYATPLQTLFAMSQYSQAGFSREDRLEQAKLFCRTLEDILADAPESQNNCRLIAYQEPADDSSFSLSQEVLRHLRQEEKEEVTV

SMILES | ΔTm at 150 µM
Nc1nc2c(ncn2[C@@H]2C[C@@H]3COP(=O)(O)OC4C(O)[C@H](n5cnc6c(N)ncnc65)O[C@@H]4COP(O)(=S)OC2C3O)c(=O)[nH]1 (stereo partly drawn) [Compound 101, 2-amino-9-[(6R,8R,15R,17R)-8-(6-amino-9H-purin-9-yl)-3,9,12,18-tetrahydroxy-12-oxo-3-sulfanylidene-2,4,7,11,13-pentaoxa-3λ^5,12λ^5-diphosphatricyclo[13.2.1.0^6,10]octadecan-17-yl]-6,9-dihydro-1H-purin-6-one] | 12 °C

same assay, conditions: thermal shift, truncated human WT STING 0.1 mg/ml, 150 μM CDN

SMILES | DSF ΔTm WT STING
Nc1ncnc2c1ncn2[C@@H]1O[C@@H]2COP(=O)(S)O[C@@H]3[C@H](F)[C@@H](COP(=O)(S)O[C@H]2[C@H]1F)C[C@H]3n1cnc2c(=O)[nH]cnc21 (single isomer, unassigned) [Compound 128b] | 7.9 °C
Nc1ncnc2c1ncn2[C@@H]1O[C@@H]2COP(=O)(S)O[C@@H]3[C@H](F)[C@@H](COP(=O)(S)O[C@H]2[C@H]1F)C[C@H]3n1cnc2c(=O)[nH]cnc21 (single isomer, unassigned) [Compound 128c] | 11.4 °C
Nc1ncnc2c1ncn2[C@@H]1O[C@@H]2COP(=O)(S)O[C@@H]3[C@H](F)[C@@H](COP(=O)(S)O[C@H]2[C@H]1F)C[C@H]3n1cnc2c(=O)[nH]cnc21 (single isomer, unassigned) [Compound 128d] | 13.4 °C

same assay, conditions: thermal shift, truncated human WT STING 0.1 mg/ml, 150 μM CDN; read-out: DSF ΔTm WT STING

SMILES | ΔTm at 150 µM
Nc1ncnc2c1ncn2[C@@H]1O[C@@H]2COP(=O)(S)O[C@@H]3[C@H](F)[C@@H](COP(=O)(S)O[C@H]2[C@H]1F)C[C@H]3n1cnc2c(=O)[nH]cnc21 (single isomer, unassigned) [Compound 128a] | 9.3 °C
Nc1nc2c(ncn2[C@@H]2C[C@@H]3COP(=O)(O)OC4C(O)[C@H](n5cnc6c(N)ncnc65)O[C@@H]4COP(=O)(O)OC2C3O)c(=O)[nH]1 (stereo partly drawn) [Compound 102, (6R,8R,15R,17R)-17-(2-amino-6-oxo-6,9-dihydro-1H-purin-9-yl)-8-(6-amino-9H-purin-9-yl)-3,9,12,18-tetrahydroxy-2,4,7,11,13-pentaoxa-3λ^5,12λ^5-diphosphatricyclo[13.2.1.0^6,10]octadecane-3,12-dione] | 13.3 °C
Nc1nc2c(ncn2[C@@H]2C[C@@H]3COP(=O)(O)OC4C(O)[C@H](n5cnc6c(N)nc(F)nc65)O[C@@H]4COP(=O)(O)OC2C3O)c(=O)[nH]1 (stereo partly drawn) [Compound 103, (6R,8R,15R,17R)-8-(6-amino-2-fluoro-9H-purin-9-yl)-17-(2-amino-6-oxo-6,9-dihydro-1H-purin-9-yl)-3,9,12,18-tetrahydroxy-2,4,7,11,13-pentaoxa-3λ^5,12λ^5-diphosphatricyclo[13.2.1.0^6,10]octadecane-3,12-dione] | 7.9 °C
Nc1nc2c(ncn2[C@@H]2C[C@@H]3COP(=O)(O)OC4C(O)[C@H](n5cnc6c(=O)[nH]cnc65)O[C@@H]4COP(=O)(O)OC2C3O)c(=O)[nH]1 (stereo partly drawn) [Compound 104, (6R,8R,15R,17R)-17-(2-amino-6-oxo-6,9-dihydro-1H-purin-9-yl)-3,9,12,18-tetrahydroxy-8-(6-oxo-6,9-dihydro-1H-purin-9-yl)-2,4,7,11,13-pentaoxa-3λ^5,12λ^5-diphosphatricyclo[13.2.1.0^6,10]octadecane-3,12-dione] | 5 °C
Nc1nc(N)c2ncn([C@@H]3O[C@@H]4COP(=O)(O)OC5C(O)[C@@H](COP(=O)(O)OC4C3O)C[C@H]5n3cnc4c(=O)[nH]c(N)nc43)c2n1 (stereo partly drawn) [Compound 105, (6R,8R,15R,17R)-17-(2-amino-6-oxo-6,9-dihydro-1H-purin-9-yl)-8-(2,6-diamino-9H-purin-9-yl)-3,9,12,18-tetrahydroxy-2,4,7,11,13-pentaoxa-3λ^5,12λ^5-diphosphatricyclo[13.2.1.0^6,10]octadecane-3,12-dione] | 5.2 °C
Nc1ncc2ncn([C@@H]3O[C@@H]4COP(=O)(O)OC5C(O)[C@@H](COP(=O)(O)OC4C3O)C[C@H]5n3cnc4c(=O)[nH]c(N)nc43)c2n1 (stereo partly drawn) [Compound 106, (6R,8R,15R,17R)-17-(2-amino-6-oxo-6,9-dihydro-1H-purin-9-yl)-8-(2-amino-9H-purin-9-yl)-3,9,12,18-tetrahydroxy-2,4,7,11,13-pentaoxa-3λ^5,12λ^5-diphosphatricyclo[13.2.1.0^6,10]octadecane-3,12-dione] | 5.5 °C
Nc1nc2c(ncn2[C@@H]2C[C@@H]3COP(=O)(O)OC4C(O)[C@H](n5cnc6c(S)ncnc65)O[C@@H]4COP(=O)(O)OC2C3O)c(=O)[nH]1 (stereo partly drawn) [Compound 107, (6R,8R,15R,17R)-17-(2-amino-6-oxo-6,9-dihydro-1H-purin-9-yl)-3,9,12,18-tetrahydroxy-8-(6-sulfanyl-9H-purin-9-yl)-2,4,7,11,13-pentaoxa-3λ^5,12λ^5-diphosphatricyclo[13.2.1.0^6,10]octadecane-3,12-dione] | 2.2 °C
CNc1ncnc2c1ncn2[C@@H]1O[C@@H]2COP(=O)(O)OC3C(O)[C@@H](COP(=O)(O)OC2C1O)C[C@H]3n1cnc2c(=O)[nH]c(N)nc21 (stereo partly drawn) [Compound 108, (6R,8R,15R,17R)-17-(2-amino-6-oxo-6,9-dihydro-1H-purin-9-yl)-3,9,12,18-tetrahydroxy-8-[6-(methylamino)-9H-purin-9-yl]-2,4,7,11,13-pentaoxa-3λ^5,12λ^5-diphosphatricyclo[13.2.1.0^6,10]octadecane-3,12-dione] | 6 °C
Nc1nc2c(ncn2[C@@H]2C[C@@H]3COP(=O)(O)OC4C(N)[C@H](n5cnc6c(N)ncnc65)O[C@@H]4COP(=O)(O)OC2C3O)c(=O)[nH]1 (stereo partly drawn) [Compound 109, (6R,8R,15R,17R)-9-amino-17-(2-amino-6-oxo-6,9-dihydro-1H-purin-9-yl)-8-(6-amino-9H-purin-9-yl)-3,12,18-trihydroxy-2,4,7,11,13-pentaoxa-3λ^5,12λ^5-diphosphatricyclo[13.2.1.0^6,10]octadecane-3,12-dione] | 5.6 °C
CSc1ncnc2c1ncn2[C@@H]1O[C@@H]2COP(=O)(O)OC3C(O)[C@@H](COP(=O)(O)OC2C1O)C[C@H]3n1cnc2c(=O)[nH]c(N)nc21 (stereo partly drawn) [Compound 110, (6R,8R,15R,17R)-17-(2-amino-6-oxo-6,9-dihydro-1H-purin-9-yl)-3,9,12,18-tetrahydroxy-8-[6-(methylsulfanyl)-9H-purin-9-yl]-2,4,7,11,13-pentaoxa-3λ^5,12λ^5-diphosphatricyclo[13.2.1.0^6,10]octadecane-3,12-dione] | 4.9 °C
Nc1nc2c(ncn2[C@@H]2C[C@@H]3COP(=O)(O)OC4C(F)[C@H](n5cnc6c(N)nc(F)nc65)O[C@@H]4COP(=O)(O)OC2C3O)c(=O)[nH]1 (stereo partly drawn) [Compound 111, (6R,8R,15R,17R)-8-(6-amino-2-fluoro-9H-purin-9-yl)-17-(2-amino-6-oxo-6,9-dihydro-1H-purin-9-yl)-9-fluoro-3,12,18-trihydroxy-2,4,7,11,13-pentaoxa-3λ^5,12λ^5-diphosphatricyclo[13.2.1.0^6,10]octadecane-3,12-dione] | 5.1 °C
